Laboratory results: the supplement of paper PMC10307832

How the values were obtained:
Assay in all cases: relative viability (nuclei count vs DMSO), 5 days (fraction); higher = more cells survive
[1] = system: EKVX
Method in brief: (§1)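 Relative viability is defined as nuclei in treated wells over nuclei in vehicle wells. Duplicate plates were run and medians reported. Lung cancer cell lines in 1536-well plates were dosed by pin tool one day after seeding, with one drug or with a fixed anchor-drug dose plus five library-drug doses (not always all listed) in √10 steps, and nuclei were counted after 5 days.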

[2] = system: EMC-BAC-2
Method in brief: as §1

[3] = system: H3255
Method in brief: as §1

[4] = system: HARA
Method in brief: as §1

[5] = system: HCC-15
Method in brief: as §1

[6] = system: HCC-827
Method in brief: as §1

[7] = system: LC-2-ad
Method in brief: as §1

[8] = system: LCLC-97TM1
Method in brief: as §1

[9] = system: LU99A
Method in brief: as §1

[10] = system: NCI-H1437
Method in brief: as §1

[11] = system: NCI-H1792
Method in brief: as §1

[12] = system: NCI-H1793
Method in brief: as §1

[13] = system: NCI-H1915
Method in brief: as §1

[14] = system: NCI-H1944
Method in brief: as §1

[15] = system: NCI-H2126
Method in brief: as §1

[16] = system: NCI-H23
Method in brief: as §1

[17] = system: NCI-H322M
Method in brief: as §1

[18] = system: NCI-H441
Method in brief: as §1

[19] = system: NCI-H460
Method in brief: as §1

[20] = system: NCI-H661
Method in brief: as §1

[21] = system: PC-3 [JPC-3]
Method in brief: as §1

[22] = system: SK-LU-1
Method in brief: as §1

O=C(O)CCCCC(CCSCc1ccccc1)SCc1ccccc1 (centres undefined) [CPI-613] + C[C@]1(O)C[C@@H](c2nc(-c3ccc4ccc(-c5ccccc5)nc4c3)c3c(N)nccn32)C1 [Linsitinib] (partner 1 µM)
relative viability ([1]; first compound 5 µM): 0.993 | relative viability ([1]; first compound 15.81 µM): 0.988 | relative viability ([1]; first compound 50 µM): 0.955 | relative viability ([1]; first compound 158.11 µM): 1.04 | relative viability ([1]; first compound 500 µM): 1.05 | relative viability ([2]; first compound 5 µM): 0.733 | relative viability ([2]; first compound 15.81 µM): 0.823 | relative viability ([2]; first compound 50 µM): 0.825 | relative viability ([2]; first compound 158.11 µM): 0.701 | relative viability ([2]; first compound 500 µM): 0.272 | relative viability ([3]; first compound 5 µM): 0.915 | relative viability ([3]; first compound 15.81 µM): 0.989 | relative viability ([3]; first compound 50 µM): 0.969 | relative viability ([3]; first compound 158.11 µM): 0.948 | relative viability ([3]; first compound 500 µM): 0.921 | relative viability ([4]; first compound 5 µM): 0.906 | relative viability ([4]; first compound 15.81 µM): 0.864 | relative viability ([4]; first compound 50 µM): 0.991 | relative viability ([4]; first compound 158.11 µM): 0.44 | relative viability ([4]; first compound 500 µM): 0.0277 | relative viability ([5]; first compound 5 µM): 0.878 | relative viability ([5]; first compound 15.81 µM): 0.845 | relative viability ([5]; first compound 50 µM): 0.794 | relative viability ([5]; first compound 158.11 µM): 0.467 | relative viability ([5]; first compound 500 µM): 0.359 | relative viability ([6]; first compound 5 µM): 0.967 | relative viability ([6]; first compound 15.81 µM): 0.892 | relative viability ([6]; first compound 50 µM): 0.906 | relative viability ([6]; first compound 158.11 µM): 0.613 | relative viability ([6]; first compound 500 µM): 0.0916 | relative viability ([7]; first compound 5 µM): 0.805 | relative viability ([7]; first compound 15.81 µM): 0.847 | relative viability ([7]; first compound 50 µM): 0.738 | relative viability ([7]; first compound 158.11 µM): 0.251 | relative viability ([7]; first compound 500 µM): 0.0081 | relative viability ([8]; first compound 5 µM): 0.186 | relative viability ([8]; first compound 15.81 µM): 0.167 | relative viability ([8]; first compound 50 µM): 0.199 | relative viability ([8]; first compound 158.11 µM): 0.16 | relative viability ([8]; first compound 500 µM): 0.0574 | relative viability ([9]; first compound 5 µM): 0.519 | relative viability ([9]; first compound 15.81 µM): 0.461 | relative viability ([9]; first compound 50 µM): 0.561 | relative viability ([9]; first compound 158.11 µM): 0.273 | relative viability ([9]; first compound 500 µM): 0.0476 | relative viability ([10]; first compound 5 µM): 1.03 | relative viability ([10]; first compound 15.81 µM): 0.902 | relative viability ([10]; first compound 50 µM): 0.916 | relative viability ([10]; first compound 158.11 µM): 0.137 | relative viability ([10]; first compound 500 µM): 0.0235 | relative viability ([11]; first compound 5 µM): 0.514 | relative viability ([11]; first compound 15.81 µM): 0.49 | relative viability ([11]; first compound 50 µM): 0.56 | relative viability ([11]; first compound 158.11 µM): 0.411 | relative viability ([11]; first compound 500 µM): 0.512 | relative viability ([12]; first compound 5 µM): 0.822 | relative viability ([12]; first compound 50 µM): 0.823 | relative viability ([12]; first compound 158.11 µM): 0.774 | relative viability ([12]; first compound 500 µM): 0.102 | relative viability ([13]; first compound 5 µM): 1.11 | relative viability ([13]; first compound 15.81 µM): 1.07 | relative viability ([13]; first compound 50 µM): 1.04 | relative viability ([13]; first compound 158.11 µM): 0.964 | relative viability ([13]; first compound 500 µM): 0.626 | relative viability ([14]; first compound 5 µM): 1.31 | relative viability ([14]; first compound 15.81 µM): 1.15 | relative viability ([14]; first compound 50 µM): 1.14 | relative viability ([14]; first compound 158.11 µM): 0.968 | relative viability ([14]; first compound 500 µM): 0.787 | relative viability ([15]; first compound 5 µM): 0.721 | relative viability ([15]; first compound 15.81 µM): 0.751 | relative viability ([15]; first compound 50 µM): 0.712 | relative viability ([15]; first compound 158.11 µM): 0.534 | relative viability ([15]; first compound 500 µM): 0.567 | relative viability ([16]; first compound 5 µM): 0.596 | relative viability ([16]; first compound 15.81 µM): 0.567 | relative viability ([16]; first compound 50 µM): 0.395 | relative viability ([16]; first compound 158.11 µM): 0.383 | relative viability ([16]; first compound 500 µM): 0.0224 | relative viability ([17]; first compound 5 µM): 0.832 | relative viability ([17]; first compound 15.81 µM): 0.721 | relative viability ([17]; first compound 50 µM): 0.931 | relative viability ([17]; first compound 158.11 µM): 0.693 | relative viability ([17]; first compound 500 µM): 0.634 | relative viability ([18]; first compound 5 µM): 0.521 | relative viability ([18]; first compound 15.81 µM): 0.59 | relative viability ([18]; first compound 50 µM): 0.605 | relative viability ([18]; first compound 158.11 µM): 0.255 | relative viability ([18]; first compound 500 µM): 0.132 | relative viability ([19]; first compound 5 µM): 0.751 | relative viability ([19]; first compound 15.81 µM): 0.737 | relative viability ([19]; first compound 50 µM): 0.78 | relative viability ([19]; first compound 158.11 µM): 0.125 | relative viability ([19]; first compound 500 µM): 0.0075 | relative viability ([20]; first compound 5 µM): 0.49 | relative viability ([20]; first compound 15.81 µM): 0.458 | relative viability ([20]; first compound 50 µM): 0.668 | relative viability ([20]; first compound 158.11 µM): 0.503 | relative viability ([20]; first compound 500 µM): 0.511 | relative viability ([21]; first compound 5 µM): 0.953 | relative viability ([21]; first compound 15.81 µM): 0.854 | relative viability ([21]; first compound 50 µM): 0.883 | relative viability ([21]; first compound 158.11 µM): 0.588 | relative viability ([21]; first compound 500 µM): 0.64 | relative viability ([22]; first compound 5 µM): 1.04 | relative viability ([22]; first compound 15.81 µM): 0.93 | relative viability ([22]; first compound 50 µM): 0.893 | relative viability ([22]; first compound 158.11 µM): 0.177 | relative viability ([22]; first compound 500 µM): 0.122
